Measured values taken from US9359317B2, “Small molecule inhibitors of HIV proteases” (Purdue Research Foundation, priority 2008, dated 2016).

Molecular target: HIV Protease (Human immunodeficiency virus type 1 group M subtype B, UniProt P04585)
Assay: Inhibition of HIV Protease
Format: biochemical
[1] = Table 1, Inhibition of HIV Protease by compounds of formula drawing 46

**Q.** How did the Ki (Table 2, Inhibition of HIV Protease) turn out when `COc1ccc(S(=O)(=O)NC(C(=O)O)C2CC3Cc4cc(OC)ccc4C2O3)cc1` (stereo not shown) [compound 2] was run?
**A.** The Ki was greater than 1000 nM.

**Q.** With `C=CCC1OC(c2ccccc2)CC1C(NS(=O)(=O)c1ccc(F)cc1)C(=O)O` (stereo not shown) [compound 18] as the compound, how does the Ki [1] read?
**A.** The Ki was greater than 1000 nM.

**Q.** Which Ki [1] does the source give for `Cc1ccc(S(=O)(=O)NC(C(=O)O)C2CC(c3ccccc3)OC2CC(O)c2ccccc2)cc1` (stereo not shown) [compound 21] here?
**A.** Its Ki is 4 nM.

**Q.** How did the Ki [1] turn out when `Cc1ccc(S(=O)(=O)NC(C(=O)O)C2CC(c3ccccc3)OC2CC(O)CO)cc1` (stereo not shown) [compound 22] was run?
**A.** The Ki was 27 nM.

**Q.** Which Ki [1] does the source give for `C=CCC1OC(c2ccccc2)CC1C(NS(=O)(=O)c1ccc(C)cc1)C(=O)O` (stereo not shown) [compound 25] here?
**A.** The Ki was greater than 1000 nM.

**Q.** `Cc1ccc(S(=O)(=O)NC(C(=O)O)C2CC(c3ccc4ccccc4c3)OC2CC(O)c2ccccc2)cc1` (stereo not shown) [compound 26] was tested. Which Ki [1] did it give?
**A.** The Ki was 150 nM.

**Q.** `CC=CC1OC(c2ccccc2)CC1C(NS(=O)(=O)c1ccc(C)cc1)C(=O)O` (stereo not shown) [compound 33] was tested. Which Ki [1] did it give?
**A.** Its Ki is greater than 1000 nM.
